Publication PMC10035947, “Development of novel anilinoquinazoline-based carboxylic acids as non-classical carbonic anhydrase IX and XII inhibitors” (Journal of Enzyme Inhibition and Medicinal Chemistry, 2023)

Legend:
[1] = molecular target: T1, hCA I (Homo sapiens, UniProt P00915); assay: stopped flow CO2 hydrase assay; format: biochemical; settings: mean from 3 assays
T1 construct: made in house
How it was run: (§1)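 Recombinant enzymes assayed by stopped-flow CO2 hydration using 0.2 mM phenol red at 557 nm in 20 mM Hepes pH 7.5 with 20 mM Na2SO4, CO2 1.7–17 mM. Inhibitor and enzyme preincubated 15 min at room temperature.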

[2] = molecular target: T2, hCA IX (Homo sapiens, UniProt Q16790); assay: stopped flow CO2 hydrase assay; format: biochemical
T2 construct: made in house
How it was run: as §1

[3] = molecular target: T3, hCA XII (Homo sapiens, UniProt O43570); assay: stopped flow CO2 hydrase assay; format: biochemical
T3 construct: made in house
T3 sequence (O43570 25-354): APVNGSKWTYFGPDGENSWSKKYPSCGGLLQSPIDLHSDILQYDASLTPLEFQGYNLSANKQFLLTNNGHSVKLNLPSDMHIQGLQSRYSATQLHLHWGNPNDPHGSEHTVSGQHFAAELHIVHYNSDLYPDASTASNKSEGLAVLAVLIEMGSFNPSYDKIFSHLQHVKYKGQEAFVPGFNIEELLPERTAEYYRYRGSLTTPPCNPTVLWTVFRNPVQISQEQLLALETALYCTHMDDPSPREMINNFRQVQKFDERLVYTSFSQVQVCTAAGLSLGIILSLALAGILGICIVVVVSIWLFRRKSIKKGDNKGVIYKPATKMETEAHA
How it was run: as §1

[4] = tested on: K-562; assay: NCI SRB assay; format: cell-based, human
[5] = tested on: RPMI-8226; assay: NCI SRB assay; format: cell-based, human
[6] = tested on: HOP-92; assay: NCI SRB assay; format: cell-based, human
[7] = tested on: NCI-H226; assay: NCI SRB assay; format: cell-based, human
[8] = tested on: NCI-H322M; assay: NCI SRB assay; format: cell-based, human
[9] = tested on: HCT-116; assay: NCI SRB assay; format: cell-based, human
[10] = tested on: HT29; assay: NCI SRB assay; format: cell-based, human
[11] = tested on: KM12; assay: NCI SRB assay; format: cell-based, human
[12] = tested on: SF-268; assay: NCI SRB assay; format: cell-based, human
[13] = tested on: SF-295; assay: NCI SRB assay; format: cell-based, human
[14] = tested on: SNB-19; assay: NCI SRB assay; format: cell-based, human
[15] = tested on: MALME-3M; assay: NCI SRB assay; format: cell-based, human
[16] = tested on: MDA-MB-435; assay: NCI SRB assay; format: cell-based
[17] = tested on: SK-MEL-2; assay: NCI SRB assay; format: cell-based, human
[18] = tested on: SK-MEL-28; assay: NCI SRB assay; format: cell-based, human
[19] = tested on: SK-MEL-5; assay: NCI SRB assay; format: cell-based, human
[20] = tested on: OVCAR-3; assay: NCI SRB assay; format: cell-based, human
[21] = tested on: OVCAR-8; assay: NCI SRB assay; format: cell-based, human
[22] = tested on: NCI/ADR-RES; assay: NCI SRB assay; format: cell-based, human
[23] = tested on: SN12C; assay: NCI SRB assay; format: cell-based, human; settings: SN12C
[24] = tested on: PC-3; assay: NCI SRB assay; format: cell-based, human
[25] = tested on: DU-145; assay: NCI SRB assay; format: cell-based, human
[26] = tested on: HS 578 T; assay: NCI SRB assay; format: cell-based, human
[27] = tested on: 59 human cancer cell lines representing nine tumour subpanels; assay: NCI SRB assay, panel and subpanel summaries; settings: all cell lines

T1 sequence (P00915 whole entry): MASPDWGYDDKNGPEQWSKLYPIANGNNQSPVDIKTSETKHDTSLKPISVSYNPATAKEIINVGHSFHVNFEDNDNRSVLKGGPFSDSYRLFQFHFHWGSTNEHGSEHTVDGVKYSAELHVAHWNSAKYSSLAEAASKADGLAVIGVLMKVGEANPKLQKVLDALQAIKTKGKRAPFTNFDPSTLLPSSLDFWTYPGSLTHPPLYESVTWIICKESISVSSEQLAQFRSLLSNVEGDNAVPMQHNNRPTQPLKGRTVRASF

## Cc1ccc(-c2nc(Nc3ccc(C(=O)O)cc3)c3ccccc3n2)cc1 [8b, 4-((2-(p-Tolyl)quinazolin-4-yl)amino)benzoic acid]
[1]
  Ki: 73.2 µM
[2]; KI hCA I / KI hCA IX
  Selectivity ratio I/IX: 45.8
[2]; KI hCA II / KI hCA IX
  Selectivity ratio II/IX: 2.44
[2]; mean from 3 assays
  Ki: 1600 nM
[3]; KI hCA I / KI hCA XII
  Selectivity ratio I/XII: 174.3
[3]; KI hCA II / KI hCA XII
  Selectivity ratio II/XII: 9.29
[3]; mean from 3 assays
  Ki: 420 nM
[4]; K-562, 10 μM
  GI%: 23%
[4]; K-562, 1.00E-5 Molar
  Growth Percent: 76.80%
[5]; RPMI-8226, 10 μM
  GI%: 45%
[5]; RPMI-8226, 1.00E-5 Molar
  Growth Percent: 55.07%
[6]; HOP-92, 10 μM
  GI%: 25%
[6]; HOP-92, 1.00E-5 Molar
  Growth Percent: 75.22%
[7]; NCI-H226, 10 μM
  GI%: 62%
[7]; NCI-H226, 1.00E-5 Molar
  Growth Percent: 37.77%
[8]; 10 μM
  GI%: – (Only GI% higher than 20% are shown)
[8]; 1.00E-5 Molar
  Growth Percent: 84.20%
[9]; HCT-116, 10 μM
  GI%: 22%
[9]; HCT-116, 1.00E-5 Molar
  Growth Percent: 77.19%
[10]; HT29, 10 μM
  GI%: – (Only GI% higher than 20% are shown)
[10]; HT29, 1.00E-5 Molar
  Growth Percent: 87.37%
[11]; KM12, 10 μM
  GI%: 42%
[11]; KM12, 1.00E-5 Molar
  Growth Percent: 57.97%
[12]; SF-268, 10 μM
  GI%: 30%
[12]; SF-268, 1.00E-5 Molar
  Growth Percent: 70.34%
[13]; SF-295, 10 μM
  GI%: 42%
[13]; SF-295, 1.00E-5 Molar
  Growth Percent: 57.85%
[14]; SNB-19, 10 μM
  GI%: 29%
[14]; SNB-19, 1.00E-5 Molar
  Growth Percent: 70.92%
[15]; 10 μM
  GI%: – (Only GI% higher than 20% are shown)
[15]; 1.00E-5 Molar
  Growth Percent: 101.05%
[16]; MDA-MB-435, 10 μM
  GI%: – (Only GI% higher than 20% are shown)
[16]; MDA-MB-435, 1.00E-5 Molar
  Growth Percent: 100.06%
[17]; SK-MEL-2, 10 μM
  GI%: – (Only GI% higher than 20% are shown)
[17]; SK-MEL-2, 1.00E-5 Molar
  Growth Percent: 113.45%
[18]; SK-MEL-28, 10 μM
  GI%: – (Only GI% higher than 20% are shown)
[18]; SK-MEL-28, 1.00E-5 Molar
  Growth Percent: 84.51%
[19]; SK-MEL-5, 10 μM
  GI%: 28%
[19]; SK-MEL-5, 1.00E-5 Molar
  Growth Percent: 71.66%
[20]; OVCAR-3, 10 μM
  GI%: 20%
[20]; OVCAR-3, 1.00E-5 Molar
  Growth Percent: 79.51%
[21]; OVCAR-8, 10 μM
  GI%: – (Only GI% higher than 20% are shown)
[21]; OVCAR-8, 1.00E-5 Molar
  Growth Percent: 81.90%
[22]; 10 μM
  GI%: 24%
[22]; 1.00E-5 Molar
  Growth Percent: 76.55%
[23]; 10 μM
  GI%: 51%
[23]; 1.00E-5 Molar
  Growth Percent: 48.99%
[24]; PC-3, 10 μM
  GI%: 23%
[24]; PC-3, 1.00E-5 Molar
  Growth Percent: 77.04%
[25]; DU-145, 10 μM
  GI%: – (Only GI% higher than 20% are shown)
[25]; DU-145, 1.00E-5 Molar
  Growth Percent: 81.93%
[26]; HS 578 T, 10 μM
  GI%: 32%
[26]; HS 578T, 1.00E-5 Molar
  Growth Percent: 67.76%
[27]; 10 μM
  Mean GI %: 20%
[27]; 1.00E-5 Molar
  Mean Growth Percent: 80.19%
